Structures can show the parent of a compound that is named as a salt.
Key:
[1] = molecular target: T1, substance P receptor (Cavia porcellus, UniProt P30547); experiment: Test for binding to guinea-pig substance P receptor (crude lung membrane sample); conditions: crude guinea-pig lung membrane sample, [3H]substance P; Ki from IC50 and Kd; read-out: Ki
T1 construct: A preparation of a crude lung membrane sample was prepared; from tissue; host or cells: guinea-pig lung (crude membrane sample)
Experimental: A preparation of a crude lung membrane sample was prepared, and a test for binding of a test substance to the sample was performed according to the method described in EP0336230A2.
The binding effect of the test substance to a substance P receptor was calculated as an affinity (Ki) of the test substance for the substance P receptor from a 50% binding concentration (IC50) and an affinity (Kd) of [^3H]substance P for the substance P receptor.

[2] = molecular target: T2, neurokinin NK2 receptor (Cavia porcellus, UniProt Q64077); experiment: Effect of suppressing neurokinin A-induced airway contraction (in vivo, intratracheal administration); design: species or system guinea pig; conditions: guinea pig; guinea pigs, intratracheal administration 60 minutes before 4 μg/kg i.v. NKA; AUC of increase in airway pressure over 10 minutes; read-out: ID50 (the source's name)
T2 construct: Using healthy guinea pigs (body weight, 350 to 550 g; Hartley male guinea pigs); from tissue; host or cells: live anaesthetised Hartley male guinea pigs (airway, in vivo)
T2 sequence (Q64077 1-402): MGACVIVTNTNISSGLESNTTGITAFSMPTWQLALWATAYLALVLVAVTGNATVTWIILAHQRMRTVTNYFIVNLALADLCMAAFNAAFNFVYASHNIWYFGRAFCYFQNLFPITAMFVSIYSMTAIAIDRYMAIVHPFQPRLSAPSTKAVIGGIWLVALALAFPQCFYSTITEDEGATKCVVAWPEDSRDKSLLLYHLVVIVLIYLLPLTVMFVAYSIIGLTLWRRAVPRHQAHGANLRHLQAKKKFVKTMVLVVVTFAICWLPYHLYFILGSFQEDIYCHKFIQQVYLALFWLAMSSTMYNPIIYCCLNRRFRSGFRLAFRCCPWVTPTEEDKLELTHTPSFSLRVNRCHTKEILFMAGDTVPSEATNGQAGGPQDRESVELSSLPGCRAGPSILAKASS
Experimental: Using healthy guinea pigs (body weight, 350 to 550 g; Hartley male guinea pigs), the effect of suppressing airway contraction induced by neurokinin A (NKA), which is an NK2 receptor agonist, was examined by a modified method of Konzett-Roessler (Naunyn-Schmiedebergs Arch. Exp. Pathol. Pharmakol. 195, 71 [1940]) using airway pressure as an indicator.
A tracheal cannula and a venous cannula were attached to a guinea pig anesthetized with pentobarbital (50 mg/mL solution, 0.40 to 0.50 mL/body, subcutaneous administration). An arterial cannula filled with heparin-containing physiological saline (100 U/mL) was further attached, and blood pressure and heart rate were monitored via an amplifier and an instantaneous heart rate meter. Subsequently, gallamine (20 mg/body, intravenous administration) was administered to terminate spontaneous breathing, and 10 mL/kg of positive pressure breathing (Ugo-Basile Biological Research Apparatus, Cat. No. 7025) was rapidly performed at 60 times/min. The airway pressure during artificial breathing was detected with a pressure transducer (TP-200T or TP-400T; Nihon Kohden Corporation) attached to a side branch of the tracheal cannula, amplified (AP-601G; Nihon Kohden Corporation), and recorded in a recorder. After the airway pressure, blood pressure, and heart rate were stabilized, 4 μg/kg of NKA was intravenously administered from the venous cannula to induce airway contraction, and the airway pressure was measured for the following 10 minutes.
The test substance was dissolved in a 5% glucose solution, and a 0.5 mL/kg solution was intratracheally administered with an intratracheal administration apparatus (model 1A-1B; Penn-Century, Inc.) 60 minutes before stimulation with NKA.
The AUC of increase in the airway pressure over 10 minutes after administration of NKA was determined as the intensity of NKA-induced airway contraction and calculated as an ID50 value from the inhibition rate based on the value of the control group (5% glucose solution intratracheal administration group).

[3] = tested on: muscarine M3 receptor; experiment: Effect of suppressing methacholine-induced airway contraction (in vivo, intratracheal administration); design: species or system guinea pig; conditions: guinea pigs, intratracheal administration 60 minutes before 30 μg/kg i.v. methacholine, AUC of increase in airway pressure over 10 minutes
How it was run: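 Anesthetized, gallamine-paralysed, ventilated male Hartley guinea pigs (350–550 g); compound in 5% glucose given intratracheally 60 min before 30 μg/kg i.v. methacholine. Airway pressure AUC over 10 min scored; ID50 from inhibition versus 5% glucose vehicle group.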

T1 sequence (P30547 whole entry): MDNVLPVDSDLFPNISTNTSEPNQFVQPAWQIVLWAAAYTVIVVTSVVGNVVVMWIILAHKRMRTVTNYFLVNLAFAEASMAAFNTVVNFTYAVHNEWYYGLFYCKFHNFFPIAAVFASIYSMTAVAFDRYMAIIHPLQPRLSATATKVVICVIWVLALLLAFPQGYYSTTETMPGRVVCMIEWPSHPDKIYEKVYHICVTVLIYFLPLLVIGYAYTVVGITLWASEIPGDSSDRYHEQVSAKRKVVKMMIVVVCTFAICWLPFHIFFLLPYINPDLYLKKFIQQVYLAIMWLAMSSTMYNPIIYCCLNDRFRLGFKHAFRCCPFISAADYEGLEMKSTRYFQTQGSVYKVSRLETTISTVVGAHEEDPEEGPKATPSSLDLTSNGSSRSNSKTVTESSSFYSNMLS

CN(CCN1CCC(OC(=O)Nc2ccccc2-c2ccccc2)CC1)C(=O)CCCCCNc1ccc(C(=O)N2CCCN(C(=O)CO[C@H]3Cc4ccccc4C34CCN(CC[C@@]3(c5ccc(F)cc5)CN(C(=O)c5cc(C(F)(F)F)cc(C(F)(F)F)c5)CO3)CC4)CC2)cc1 [Example 110, 1-{2-[{6-[(4-{[4-({[(2S)-1′-{2-[(5R)-3-[3,5-Bis(trifluoromethyl)benzoyl]-5-(4-fluorophenyl)-1,3-oxazolidin-5-yl)ethyl}-2,3-dihydrospiro[indene-1,4′-piperidin]-2-yl]oxy}acetyl)-1,4-diazepan-1-yl]carbonyl}phenyl)amino]hexanoyl}(methyl)amino]ethyl}piperidin-4-yl biphenyl-2-ylcarbamate trihydrochloride]
Ki [1]: 1.7 nM
ED50 [2]: 0.0135 mg/kg
ID50 [3]: 0.0318 mg/kg

CN(CCN1CCC(OC(=O)Nc2ccccc2-c2ccccc2)CC1)C(=O)CCCCCNCc1ccc(C(=O)N(C)CCCN(C)C(=O)CO[C@H]2Cc3ccccc3C23CCN(CC[C@@]2(c4ccc(F)cc4)CN(C(=O)c4cc(C(F)(F)F)cc(C(F)(F)F)c4)CO2)CC3)s1 [Example 1, 1-{2-[{6-[({5-[{3-[({[(2S)-1′-{2-[(5R)-3-[3,5-Bis(trifluoromethyl)benzoyl]-5-(4-fluorophenyl)-1,3-oxazolidin-5-yl]ethyl}-2,3-dihydrospiro[indene-1,4′-piperidin]-2-yl]oxy}acetyl)(methyl)amino]propyl}(methyl)carbamoyl]-2-thienyl}methyl)amino]hexanoyl}(methyl)amino]ethyl}piperidin-4-yl biphenyl-2-ylcarbamate]
Ki [1]: 1.5 nM
ED50 [2]: 0.0049 mg/kg
ID50 [3]: 0.0177 mg/kg

CN(CCN1CCC(OC(=O)Nc2ccccc2-c2ccccc2)CC1)C(=O)CCCNc1ccc(C(=O)N(C)CCCN(C)C(=O)CO[C@H]2Cc3ccccc3C23CCN(CC[C@@]2(c4ccc(F)cc4)CN(C(=O)c4cc(C(F)(F)F)cc(C(F)(F)F)c4)CO2)CC3)cc1 [Example 34, 1-(2-{[4-({4-[{3-[({[(2S)-1′-{2-[(5R)-3-[3,5-Bis(trifluoromethyl)benzoyl]-5-(4-fluorophenyl)-1,3-oxazolidin-5-yl]ethyl}-2,3-dihydrospiro[indene-1,4′-piperidin]-2-yl]oxy}acetyl)(methyl)amino]propyl}(methyl)carbamoyl]phenyl}amino)butanoyl](methyl)amino}ethyl)piperidin-4-yl biphenyl-2-ylcarbamate trihydrochloride]
Ki [1]: 1 nM
ED50 [2]: 0.03 mg/kg
ID50 [3]: 0.0251 mg/kg

CN(CCN1CCC(OC(=O)Nc2ccccc2-c2ccccc2)CC1)C(=O)CCOCCNc1ccc(C(=O)N(C)CCCN(C)C(=O)CO[C@H]2Cc3ccccc3C23CCN(CC[C@@]2(c4ccc(F)cc4)CN(C(=O)c4cc(C(F)(F)F)cc(C(F)(F)F)c4)CO2)CC3)cc1 [Example 29, 1-{2-[{3-[2-({4-[{3-[({[(2S)-1′-{2-[(5R)-3-[3,5-Bis(trifluoromethyl)benzoyl]-5-(4-fluorophenyl)-1,3-oxazolidin-5-yl]ethyl}-2,3-dihydrospiro[indene-1,4′-piperidin]-2-yl]oxy}acetyl)(methy)amino]propyl}(methyl)carbamoyl]phenyl}amino)ethoxy]propanoyl}(methyl)amino]ethyl}piperidin-4-yl biphenyl-2-ylcarbamate trihydrochloride]
Ki [1]: 1.4 nM
ED50 [2]: 0.0438 mg/kg
ID50 [3]: 0.0266 mg/kg

CN(CCN1CCC(OC(=O)Nc2ccccc2-c2ccccc2)CC1)C(=O)CCCCCNc1ccc(C(=O)N(C)CCN(C)C(=O)CO[C@H]2Cc3ccccc3C23CCN(CC[C@@]2(c4ccc(F)cc4)CN(C(=O)c4cc(C(F)(F)F)cc(C(F)(F)F)c4)CO2)CC3)cc1 [Example 16, 1-(2-{[6-({4-[{2-[({[(2S)-1′-{2-[(5R)-3-[3,5-Bis(trifluoromethyl)benzoyl]-5-(4-fluorophenyl)-1,3-oxazolidin-5-yl]ethyl}-2,3-dihydrospiro[indene-1,4′-piperidin]-2-yl]oxy}acetyl)(methyl)amino]ethyl}(methyl)carbamoyl]phenyl}amino)hexanoyl](methyl)amino}ethyl)piperidin-4-yl biphenyl-2-ylcarbamate trihydrochloride]
Ki [1]: 2.5 nM
ED50 [2]: 0.0286 mg/kg
ID50 ([3]; trihydrochloride): 0.0191 mg/kg

CN(CCN1CCC(OC(=O)Nc2ccccc2-c2ccccc2)CC1)C(=O)CCNc1ccc(C(=O)N(C)CCCN(C)C(=O)CO[C@H]2Cc3ccccc3C23CCN(CC[C@@]2(c4ccc(F)cc4)CN(C(=O)c4cc(C(F)(F)F)cc(C(F)(F)F)c4)CO2)CC3)cc1 [Example 94, 1-{2-[(N-{4-[{3-[({[(2S)-1′-{2-[(5R)-3-[3,5-Bis(trifluoromethyl)benzoyl]-5-(4-fluorophenyl)-1,3-oxazolidin-5-yl]ethyl}-2,3-dihydrospiro[indene-1,4′-piperidin]-2-yl]oxy}acetyl)(methyl)amino]propyl}(methyl)carbamoyl]phenyl}-β-alanyl)(methyl)amino]ethyl}piperidin-4-yl biphenyl-2-ylcarbamate]
Ki [1]: 0.81 nM
ED50 [2]: 0.0431 mg/kg
ID50 [3]: 0.0395 mg/kg

CN(CCN1CCC(OC(=O)Nc2ccccc2-c2ccccc2)CC1)C(=O)CCCCCCN(C)c1ccc(C(=O)N(C)CCCN(C)C(=O)CO[C@H]2Cc3ccccc3C23CCN(CC[C@@]2(c4ccc(F)cc4)CN(C(=O)c4cc(C(F)(F)F)cc(C(F)(F)F)c4)CO2)CC3)cc1 [Example 40, 1-{2-[{7-[{4-[{3-[({[(2S)-1′-{2-[(5R)-3-[3,5-Bis(trifluoromethyl)benzoyl]-5-(4-fluorophenyl)-1,3-oxazolidin-5-yl]ethyl}-2,3-dihydrospiro[indene-1,4′-piperidin]-2-yl]oxy}acetyl)(methyl)amino]propyl}(methyl)carbamoyl]phenyl}(methyl)amino]heptanoyl}(methyl)amino]ethyl}piperidin-4-yl biphenyl-2-ylcarbamate trihydrochloride]
Ki [1]: 1.6 nM
ED50 [2]: 0.0573 mg/kg
ID50 [3]: 0.0754 mg/kg

Cc1nc(NCCCCCC(=O)N(C)CCN2CCC(OC(=O)Nc3ccccc3-c3ccccc3)CC2)sc1C(=O)N(C)CCCN(C)C(=O)CO[C@H]1Cc2ccccc2C12CCN(CC[C@@]1(c3ccc(F)cc3)CN(C(=O)c3cc(C(F)(F)F)cc(C(F)(F)F)c3)CO1)CC2 [Example 105, 1-(2-{[6-({5-[{3-[({[(2S)-1′-{2-[(5R)-3-[3,5-Bis(trifluoromethyl)benzoyl]-5-(4-fluorophenyl)-1,3-oxazolidin-5-yl]ethyl}-2,3-dihydrospiro[indene-1,4′-piperidin]-2-yl]oxy}acetyl)(methyl)amino]propyl}(methyl)carbamoyl]-4-methyl-1,3-thiazol-2-yl}amino)hexanoyl](methyl)amino}ethyl)piperidin-4-yl biphenyl-2-ylcarbamate trihydrochloride]
Ki [1]: 2.1 nM
ED50 [2]: 0.0136 mg/kg
ID50 [3]: 0.04 mg/kg

Reference: patent publication US8476253B2, “Amide derivative” (Daiichi Sankyo Company, Limited, priority 2009, dated 2013)
